# Source: paper PMC13483160, “Reorganization of Innate Immune Cell Lipid Profiles by Bioinspired Meroterpenoids to Limit Inflammation” (Advanced Science, 2026)
# Target: T1, 5-lipoxygenase (ALOX5) (Homo sapiens, UniProt P09917)
# T1 sequence (P09917 1-674): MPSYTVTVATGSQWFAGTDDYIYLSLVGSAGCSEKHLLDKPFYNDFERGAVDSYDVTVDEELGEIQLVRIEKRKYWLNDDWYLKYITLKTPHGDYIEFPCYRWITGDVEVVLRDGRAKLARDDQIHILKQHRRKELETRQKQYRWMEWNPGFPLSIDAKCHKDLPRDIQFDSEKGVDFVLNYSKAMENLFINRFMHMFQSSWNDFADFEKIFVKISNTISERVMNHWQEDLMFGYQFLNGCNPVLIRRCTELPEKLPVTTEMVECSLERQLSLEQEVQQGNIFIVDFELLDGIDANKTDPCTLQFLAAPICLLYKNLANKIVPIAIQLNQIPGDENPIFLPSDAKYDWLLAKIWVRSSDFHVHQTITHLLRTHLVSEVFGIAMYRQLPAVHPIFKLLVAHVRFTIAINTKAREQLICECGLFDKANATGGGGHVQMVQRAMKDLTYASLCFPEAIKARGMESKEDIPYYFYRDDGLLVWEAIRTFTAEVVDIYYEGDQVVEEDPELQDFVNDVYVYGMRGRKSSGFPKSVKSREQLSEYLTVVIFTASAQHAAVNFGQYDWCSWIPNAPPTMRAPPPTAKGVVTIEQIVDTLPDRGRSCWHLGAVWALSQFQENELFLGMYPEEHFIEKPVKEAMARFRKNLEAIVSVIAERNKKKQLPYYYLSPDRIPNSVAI
# Assay: enzyme kinetics of human recombinant ALOX5 at varying AA ([…])
# Type: biochemical
structure (smiles),measurement,value
"CCCCC/C=C\C/C=C\C/C=C\C/C=C\CCCC(=O)O [AA/20:4, 5Z,8Z,11Z,14Z‐eicosatetraenoic acid]",enzyme kinetics of human recombinant ALOX5 at varying AA (3-300 μM),Lineweaver–Burk plot generated from activity data of human recombinant ALOX5
